{
  "source": "patent US6245743A",
  "about": "“Inhibitors of factor Xa” (COR Therapeutics, Inc., priority 1998, dated 2001)",
  "key": {"[1]": {"experiment": "Cuticle bleeding time model in rabbits", "assay_type": "in vivo, rabbit", "conditions": "1500 μg/kg+14.85 μg/kg/min, bleeding time experiments", "experimental": "In an ancillary study, a Cuticle Bleeding Time model was used to evaluate the effect of test compounds on bleeding time (BT) measurements in rabbits. The standardized protocol involved anesthesia and catheterization of rabbits as previously described in this Example 43. To measure BT, a toe nail was cut 5 mm from the base of the cuticle with a canine nail trimming device. Time until cessation of bleeding was recorded by wicking the blood on to BT blotting paper in 30 second intervals. Test compound was administered as a bolus followed by infusion regimen. Two BT measurements were obtained prior to administration of test compound and three BT measurements accomplished serially after initiation of steady state infusion of test compound. BT measurements were allowed to continue for up to 30 minutes at which time it was stopped with application of silver nitrate. Blood samples were obtained just prior to all BT measurements and processed for measurement of hematological and coagulation parameters."}, "[2]": {"test_system": "rabbit venous thrombosis model", "experiment": "Rabbit deep vein (venous) thrombosis model", "assay_type": "in vivo", "conditions": "for Hct: mean (SD on next line); for PLT / RBC / WBC: mean±SD", "excerpt": "Rabbits were anesthetized with I.M. injections of Ketamine, Xylazine, and Acepromazine cocktail."}, "factor Xa": {"target": "factor Xa (Homo sapiens, UniProt P00742)", "sequence (P00742 235-488 limits assumed)": "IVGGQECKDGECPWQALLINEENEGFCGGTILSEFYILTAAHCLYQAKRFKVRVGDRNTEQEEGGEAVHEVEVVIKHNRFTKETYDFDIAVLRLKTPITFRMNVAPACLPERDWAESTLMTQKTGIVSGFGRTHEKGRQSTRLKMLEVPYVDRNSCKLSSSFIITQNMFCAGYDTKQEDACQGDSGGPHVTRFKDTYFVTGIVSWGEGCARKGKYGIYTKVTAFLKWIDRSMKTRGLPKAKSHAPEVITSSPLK", "sequence (P00742 41-179 limits assumed)": "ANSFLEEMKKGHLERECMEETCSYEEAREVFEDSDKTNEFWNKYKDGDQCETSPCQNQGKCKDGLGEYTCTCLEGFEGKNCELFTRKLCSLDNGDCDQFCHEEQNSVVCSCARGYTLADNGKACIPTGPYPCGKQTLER", "experiment": "Factor Xa amidolytic assay (chromogenic substrate S2765)", "assay_type": "biochemical", "conditions": "read-out: Inhibitory Activity (IC50) Factor Xa"}, "prothrombinase complex": {"target": "prothrombinase complex (Homo sapiens, UniProt P00742)", "sequence (P00742 235-488 limits assumed)": "as the sequence (P00742 235-488 limits assumed) above", "sequence (P00742 41-179 limits assumed)": "as the sequence (P00742 41-179 limits assumed) above", "sequence (P12259 29-737 partner limits assumed)": "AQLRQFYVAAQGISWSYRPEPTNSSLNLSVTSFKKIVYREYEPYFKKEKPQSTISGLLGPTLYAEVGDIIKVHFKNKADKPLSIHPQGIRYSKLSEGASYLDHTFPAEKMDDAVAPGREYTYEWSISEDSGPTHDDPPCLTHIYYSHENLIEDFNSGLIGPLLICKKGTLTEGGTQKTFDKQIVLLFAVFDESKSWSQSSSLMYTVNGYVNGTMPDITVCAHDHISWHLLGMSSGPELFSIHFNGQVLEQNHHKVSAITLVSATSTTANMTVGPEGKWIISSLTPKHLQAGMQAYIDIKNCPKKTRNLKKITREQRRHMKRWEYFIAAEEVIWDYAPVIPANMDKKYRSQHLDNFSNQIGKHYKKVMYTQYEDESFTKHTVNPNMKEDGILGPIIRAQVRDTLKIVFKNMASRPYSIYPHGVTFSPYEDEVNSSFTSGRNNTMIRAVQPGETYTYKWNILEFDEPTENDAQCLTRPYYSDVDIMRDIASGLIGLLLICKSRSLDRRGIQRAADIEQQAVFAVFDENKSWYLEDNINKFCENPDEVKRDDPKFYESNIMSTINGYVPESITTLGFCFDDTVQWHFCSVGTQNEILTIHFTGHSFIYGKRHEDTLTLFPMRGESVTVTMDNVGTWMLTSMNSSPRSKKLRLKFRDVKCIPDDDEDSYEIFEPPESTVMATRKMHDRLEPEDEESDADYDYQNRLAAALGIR", "sequence (P12259 1574-2224 partner limits assumed)": "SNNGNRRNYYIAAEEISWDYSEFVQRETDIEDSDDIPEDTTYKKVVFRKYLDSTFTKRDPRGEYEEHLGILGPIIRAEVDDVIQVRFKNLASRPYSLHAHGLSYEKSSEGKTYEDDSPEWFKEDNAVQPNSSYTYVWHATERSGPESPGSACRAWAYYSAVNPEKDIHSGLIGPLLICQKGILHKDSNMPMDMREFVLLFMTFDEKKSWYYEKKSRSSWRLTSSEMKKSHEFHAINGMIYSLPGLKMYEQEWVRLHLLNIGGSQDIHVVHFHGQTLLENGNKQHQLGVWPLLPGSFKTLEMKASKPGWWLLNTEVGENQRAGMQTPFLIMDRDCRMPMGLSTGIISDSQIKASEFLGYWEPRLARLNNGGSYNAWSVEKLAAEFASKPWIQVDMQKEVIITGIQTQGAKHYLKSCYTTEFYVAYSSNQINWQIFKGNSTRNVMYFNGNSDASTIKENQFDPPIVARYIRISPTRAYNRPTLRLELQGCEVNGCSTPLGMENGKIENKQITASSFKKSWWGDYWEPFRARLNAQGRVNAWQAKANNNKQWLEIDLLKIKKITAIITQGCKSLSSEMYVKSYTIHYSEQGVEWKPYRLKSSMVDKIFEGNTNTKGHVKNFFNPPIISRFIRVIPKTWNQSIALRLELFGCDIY", "experiment": "Prothrombinase inhibition assay, plasma free system (thrombin generation, Chromozym TH)", "assay_type": "biochemical", "conditions": "read-out: Inhibitory Activity (IC50) Prothrombinase"}},
  "note": "Square brackets hold non-standard residues; d marks the D form. Peptide text beside a SMILES is read from it. * marks the point of attachment. Hydrocinnamoyl = O=C(CCc1ccccc1)*; dCit = NC(=O)NCCC[C@@H](N)C(=O)O; Boc = CC(C)(C)OC(=O)*",
  "data": [
    {"smiles": "CC(C)(C)OC(=O)N[C@H](CCCNC(=N)N)C(=O)NCC(=O)N[C@H](C=O)CCCNC(=N)N", "note": "[Boc-D-Arg-Gly-Arg-H] (Boc-[dR]-Gly-Arg-aldehyde)", "values": [
      {"measurement": "average increase in PT", "setting": "[1]", "value": 1.07, "unit": "fold"},
      {"measurement": "average increase in aPTT", "setting": "[1]", "value": 1.61, "unit": "fold"},
      {"measurement": "Hct", "setting": "[2]; 200 + 1.98 μg/kg + μg/kg/min", "value": 36.9, "unit": "%"},
      {"measurement": "PLT", "setting": "[2]; 200 + 1.98 μg/kg + μg/kg/min", "value": "393 ± 84 × 10^3 /μL"},
      {"measurement": "RBC", "setting": "[2]; 200 + 1.98 μg/kg + μg/kg/min", "value": "5.69 ± 0.14 × 10^6 /μL"},
      {"measurement": "WBC", "setting": "[2]; 200 + 1.98 μg/kg + μg/kg/min", "value": "4.45 ± 0.97 × 10^3 /μL"},
      {"measurement": "Hct", "setting": "[2]; 600 + 5.94 μg/kg + μg/kg/min", "value": 35.3, "unit": "%"},
      {"measurement": "PLT", "setting": "[2]; 600 + 5.94 μg/kg + μg/kg/min", "value": "442 ± 81 × 10^3 /μL"},
      {"measurement": "RBC", "setting": "[2]; 600 + 5.94 μg/kg + μg/kg/min", "value": "5.74 ± 0.48 × 10^6 /μL"},
      {"measurement": "WBC", "setting": "[2]; 600 + 5.94 μg/kg + μg/kg/min", "value": "3.87 ± 0.65 × 10^3 /μL"},
      {"measurement": "Hct", "setting": "[2]; 1000 + 9.90 μg/kg + μg/kg/min", "value": 35.5, "unit": "%"},
      {"measurement": "PLT", "setting": "[2]; 1000 + 9.90 μg/kg + μg/kg/min", "value": "375 ± 73 × 10^3 /μL"},
      {"measurement": "RBC", "setting": "[2]; 1000 + 9.90 μg/kg + μg/kg/min", "value": "5.71 ± 0.28 × 10^6 /μL"},
      {"measurement": "WBC", "setting": "[2]; 1000 + 9.90 μg/kg + μg/kg/min", "value": "5.09 ± 1.61 × 10^3 /μL"},
      {"measurement": "Hct", "setting": "[2]; 1500 + 14.85 μg/kg + μg/kg/min", "value": 36.0, "unit": "%"},
      {"measurement": "PLT", "setting": "[2]; 1500 + 14.85 μg/kg + μg/kg/min", "value": "433 ± 22 × 10^3 /μL"},
      {"measurement": "RBC", "setting": "[2]; 1500 + 14.85 μg/kg + μg/kg/min", "value": "5.80 ± 0.50 × 10^6 /μL"},
      {"measurement": "WBC", "setting": "[2]; 1500 + 14.85 μg/kg + μg/kg/min", "value": "4.82 ± 1.01 × 10^3 /μL"},
      {"measurement": "effects on hematological parameters as compared to saline controls", "setting": "[2]; all dose regimens", "value": "no significant effects"},
      {"measurement": "antithrombotic efficacy in the rabbit venous thrombosis model", "setting": "[2]; bolus + infusion, dose range", "value": "demonstrated antithrombotic efficacy at the higher doses evaluated"}
    ]},
    {"smiles": "CC(C)(C)OC(=O)N[C@H](CCCNC(N)=O)C(=O)NCC(=O)N[C@H](C=O)CCCNC(=N)N", "note": "[Boc-D-Cit-Gly-Arg-H] (Boc-[dCit]-Gly-Arg-aldehyde)", "values": [
      {"measurement": "IC50", "setting": "factor Xa", "value": 3, "unit": "µM"}
    ]},
    {"smiles": "CN(C)C(=NCCCC[C@@H](NC(=O)OC(C)(C)C)C(=O)NCC(=O)N[C@H](C=O)CCCNC(=N)N)N(C)C", "note": "[Boc-D-Har((CH3)4)-Gly-Arg-H]", "values": [
      {"measurement": "IC50", "setting": "factor Xa", "value": 5, "unit": "µM"},
      {"measurement": "IC50", "setting": "prothrombinase complex", "value": 44, "unit": "µM"}
    ]},
    {"smiles": "N=C(N)NCCC[C@@H](C=O)NC(=O)CNC(=O)[C@@H](CCCNC(=N)N)NC(=O)C(=O)O", "note": "[HOOCCO-D-Arg-Gly-Arg-H, Oxaloyl-D-Arg-Gly-Arg-H]", "values": [
      {"measurement": "IC50", "setting": "prothrombinase complex", "value": 0.063, "unit": "µM"}
    ]},
    {"smiles": "N=C(N)NCCC[C@@H](C=O)NC(=O)CNC(=O)[C@@H](CCCNC(=N)N)NC(=O)CCc1ccccc1", "note": "[PhCH2 CH2 CO-D-Arg-Gly-Arg-H, 3-Phenylpropanoyl-D-Arg-Gly-Arg-H] (Hydrocinnamoyl-[dR]-Gly-Arg-aldehyde)", "values": [
      {"measurement": "IC50", "setting": "prothrombinase complex", "value": 1.7, "unit": "µM"}
    ]}
  ]
}
